Measurements from patent US11707474B2, “Methods for treating acute myeloid leukemia and related conditions” (GlycoMimetics, Inc., priority 2018, dated 2023).
Where “and” joins values, the source holds several entries; their conditions need not be identical. Identical values can stand only once.

Key:
E-selectin = target: T1, E-selectin (Mus musculus, UniProt Q00690); experiment: E-selectin competitive binding assay (sLe^a polyacrylamide conjugate)
T1 construct: fused on or other part: Ig (immunoglobulin Fc) part fused on as a handle for immobilisation
T1 sequence (Q00690 22-175 limits assumed): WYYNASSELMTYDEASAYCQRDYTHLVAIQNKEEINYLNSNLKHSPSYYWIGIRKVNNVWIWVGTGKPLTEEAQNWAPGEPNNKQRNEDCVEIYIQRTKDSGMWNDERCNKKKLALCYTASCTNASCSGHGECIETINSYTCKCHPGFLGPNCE
Method: The inhibition assay to screen for and characterize glycomimetic antagonists of E-selectin is a competitive binding assay, which allows the determination of IC50 and IC90 values. An E-selectin/Ig chimera was immobilized in 96 well microtiter plates by incubation at 37° C. for 2 hours. To reduce nonspecific binding, bovine serum albumin was added to each well and incubated at room temperature for 2 hours. The plate was washed and serial dilutions of the test compounds were added to the wells in the presence of conjugates of biotinylated, sLe^a polyacrylamide with streptavidin/horseradish peroxidase and incubated for 2 hours at room temperature.
To determine the amount of sLe^a bound to immobilized E-selectin after washing, the peroxidase substrate, 3, 3′, 5, 5′ tetramethylbenzidine (TMB) was added. After 3 minutes, the enzyme reaction was stopped by the addition of H3PO4, and the absorbance of light at a wavelength of 450 nm was determined. The concentration of a compound of Formula (I), required to inhibit binding by 50% was determined and reported as the IC50. The concentration required to inhibit binding by 90% was determined and reported as the IC90.

MLL-AF9 leukemic cells = experiment: Surviving LSC after high dose cytarabine, limiting dilution transplantation; format: in vivo, mice; conditions: with high dose cytarabine (2 x 900 mg/kg)
Method: Wild-type mice were transplanted with MLL-AF9 leukemic cells and following engraftment, treated with high dose cytarabine (2 doses of 900 mg/kg at a 12-hour interval (1800 mg/kg total)) alone or in combination with a compound of Formula (I). Bone-marrow cells were harvested 24 hours after treatment and the surviving functional LSCs were quantified by limiting dilution transplantation assays in irradiated wild-type syngeneic recipients. The proportion of recipients who developed leukemia was used to calculate the number of surviving LSC by Poisson's distribution.

CC[C@@H]1CC(C(=O)NCCNC(=O)CCOCCOCCOCCOCCOCCOCCOCCOCCOCCOCCOCCOC)C[C@@H](O[C@@H]2O[C@@H](CO)[C@H](O)C(O[C@@H](CC3CCCCC3)C(=O)O)C2NC(C)=O)C1OC1O[C@@H](C)C(O)[C@H](O)[C@@H]1O (stereo partly drawn) [compound of Formula (I)]
IC50 (E-selectin): 2450 nM and 2490 nM
IC90 (E-selectin): 3.7 µM and 4.91 µg/mL
increase of sensitivity of LSC to cytarabine treatment (MLL-AF9 leukemic cells): approximately 20 fold
